Results published in patent publication US7485721B2, “Substituted porphyrins” (Duke University, priority 2002, dated 2009).

Experiments:
[1] = equilibrium H3P^5+ = H2P^4+ + H^+; cited from earlier work
[2] = Spectrophotometric proton dissociation constant pKa2; assay type: physicochemical; settings: of the metal-free porphyrin H2T(alkyl)-2-PyP^4+; 25° C., ionic strength 0.10 (NaNO3/NaOH)
Description: Uv/vis spectroscopy. The uv/vis spectra were taken on a Shimadzu UV-2501 PC spectrophotometer at 25° C. The proton dissociation constants (pKa2), were determined spectrophotometrically at 25° C., at an ionic strength of 0.1 M (NaOH/NaNO3), as previously described.^4
The proton dissociation constants, Ka2 and Ka3 are defined as follows: H2P^4+ ? HP^3++H^+Ka2 [1] H3P^5+ ? H2P^4++H^+ Ka3 [2] As the alkyl chains lengthen the porphyrins become less hydrated and the separation of charges (eq) becomes less favorable, ie. pKa2 increases (FIG. 3 insert).

[3] = Mn loss from Mn porphyrins in 12 M HCl; assay type: physicochemical
Description: The half-lives for the acid and anion-catalyzed removal of zinc from Zn N-methylated derivatives^35 in 1.0 M HNO3 were 89 s for the meta, 165 s for the para, and 19 hours for the ortho ZnTM-2-PyP^4+. […] In addition to porphyrin ring distortion,^29-32 the steric hindrance and solvation effects imposed by the progressively longer alkyl chains may also contribute to the differences in metaladon/demetalation behavior.

[4] = stroke, diabetes, sickle cell disease, cancer/radiation; cited from earlier work
[5] = Thin-layer chromatography, retention factor Rf as lipophilicity; assay type: physicochemical; settings: silica gel TLC plates, 1:1:8 KNO3-saturated H2O:H2O:acetonitrile; for Rf (compound path/solvent path): Mn(III) complex; for Rf (compound path/solvent path), metal-free porphyrin (in parentheses): corresponding metal-free porphyrin H2T(alkyl)-2-PyP^4+
Source text: Thin-layer chromatography. All ligands and their Mn(III) complexes were chromatographed on silica gel TLC plates using 1:1:8 KNO3-saturated H2O:H2O: acetonitrile. The atropoisomers could not be separated for the methyl^19 and ethyl analogues,^24 they begin to separate for the n-propyl and n-butyl species and were clearly resolved with the n-hexyl and n-octyl compounds.
Thin Layer Chromatography. The increase in the length of the alkyl chains is accompanied by an increase in the lipophilicity of the compounds as indicated by the increase in the retention factor Rf (porphyrin path/solvent path) (Table 1, FIG. 2). […] As the chains lengthen, their contribution to the overall lipophilicity increases, and eventually the n-octyl porphyrin and its Mn(III) complex are more alike in Rf than are methyl analogues.

[6] = Stability of reduced Mn(II) porphyrins in excess ascorbic acid; settings: aerobic, within 125 min; 6 μM, 70-fold excess of ascorbic acid, pH 7.8, 0.1 M tris buffer; reduced Mn(II) form
Description: Therefore, we also examined the behavior of the reduced and more biologically relevant Mn^IIT(alkyl)-2-PyP^4+ compounds. We compared the methyl, n-hexyl and n-octyl derivatives (6 μM) aerobically and anaerobically in the presence of a 70-fold excess of ascorbic acid (pH 7.8, 0.1 M tris buffer) and in the presence and absence of a 150-fold excess of EDTA.

[7] = test system: SOD-deficient Escherchia coli; settings: aerobic conditions; cited from earlier work
[8] = Cyclic voltammetry, metal-centered redox potential E1/2 of Mn(III)/Mn(II) couple; assay type: physicochemical; settings: 0.05 M phosphate buffer (pH 7.8, 0.1 M NaCl)
Description: Electrochemistry. Measurements were performed on a CH Instruments Model 600 Voltammetric Analyzer.^3.4 A three-electrode system in a small volume cell (0.5 mL to 3 mL), with a 3 mm-diameter glassy carbon button working electrode (Bioanalytical Systems), plus the Ag/AgCl reference and Pt auxilliary electrodes was used. Solutions contained 0.05 M phosphate buffer, pH 7.8, 0.1 M NaCl, and […] metalloporphyrin. The scan rates were 0.01-0.5 V/s, typically 0.1 V/s. The potentials were standardized against the potassium ferrocyanide/ferricyanide^20 and/or against Mn^IIITE-2-PyP^5+. All voltammograms were reversible.
Electrochemistry. […] The metal-centered redox potentials, E1/2 are in Table 1 and the representative voltammograms of the Mn^III/IITE-2-PyP^5+/4+ and Mn^III/IITnHex-2-PyP^5+/4+ compounds are shown in the Supporting Material, FIG. 6. Both lipophilicity (FIG. 2B) and E1/2 (FIG. 3B, insert) increase exponentially with the number of CH2 groups in the alkyl chains. Consequently, the increase in E1/2 is a linear function of Rf (FIG. 3B).

[9] = Catalysis of O2^− dismutation, cytochrome c assay (xanthine/xanthine oxidase); assay type: biochemical; settings: 0.05 M phosphate buffer, pH 7.8, (25 ± 1) ° C.
Source text: Catalysis of O2^− dismutation. We have previously shown that the O2^− /cytochrome c reduction assay gives the same catalytic rate constants as does pulse radiolysis for Mn^IIITE-2-PyP^5+, {Mn^IIIBVDME}2, {Mn^IIIBV}2 and MnCl2.^21 Therefore the convenient cytochrome c assay was used to characterize the series of Mn(III) N-alkylpyridylporphyrins. The xanthine/xanthine oxidase reaction was the source of O2^− and ferricytochrome c was used as the indicating scavenger for O2^−.^22 The reduction of cytochrome c was followed at 550 nm. Assays were conducted at (25±1) ° C., in 0.05 M phosphate buffer, pH 7.8, 0.1 mM EDTA, in the presence and absence of 15 μg/mL of catalase. Rate constants for the reaction of metalloporphyrins with O2′^− were based upon competition with 10 μM cytochrome c, kcyt c=2.6×10^5 M^−1 s^−1 as described elsewhere.^21 The O2^− was produced at the rate of 1.2 μM per minute. Any possible interference through inhibition of the xanthine/xanthine oxidase reaction by the test compounds was examined by following the rate of urate accumulation at 295 nm in the absence of cytochrome c. No reoxidation of cytochrome c by the metalloporphyrins was observed
Catalysis of O2^− dismutation. […] All of the manganese compounds are potent catalysts of O2^− dismutation with log kcat between 7.79 and 7.25.

[10] = 1.0 M HNO3, within a week; cited from earlier work
[11] = kcat=kred=kox; cited from earlier work

Row | pKa2 [2] | Rf (compound path/solvent path) [5] | Rf (compound path/solvent path), metal-free porphyrin (in parentheses) [5] | degradation of Mn(II) porphyrin [6] | E1/2 [8] | log kcat [9] | Molecule | other results
1 |  |  |  |  |  |  | C[n+]1cccc(-c2c3nc(c(-c4ccc[n+](C)c4)c4ccc([nH]4)c(-c4ccc[n+](C)c4)c4nc(c(-c5ccc[n+](C)c5)c5ccc2[nH]5)C=C4)C=C3)c1 [H2TM-3-PyP^4+] | pKa3 [1]: 1.8
2 |  |  |  |  |  |  | C[n+]1ccc(-c2c3nc(c(-c4cc[n+](C)cc4)c4ccc([nH]4)c(-c4cc[n+](C)cc4)c4nc(c(-c5cc[n+](C)cc5)c5ccc2[nH]5)C=C4)C=C3)cc1 [H2TM-4-PyP^4+] | pKa3 [1]: 1.4
3 | 11.7 | 0.33 | 0.46 |  | +254 mV vs NHE | 7.25 | CCCC[n+]1ccccc1-c1c2nc(c(-c3cccc[n+]3CCCC)c3ccc([nH]3)c(-c3cccc[n+]3CCCC)c3nc(c(-c4cccc[n+]4CCCC)c4ccc1[nH]4)C=C3)C=C2.[Mn+3] [Mn^IIITnBut-2-PyP^5+] | 
4 | 12.2 | 0.57 | 0.63 | none | +314 mV vs NHE | 7.48 | CCCCCC[n+]1ccccc1-c1c2nc(c(-c3cccc[n+]3CCCCCC)c3ccc([nH]3)c(-c3cccc[n+]3CCCCCC)c3nc(c(-c4cccc[n+]4CCCCCC)c4ccc1[nH]4)C=C3)C=C2.[Mn+3] [Mn^IIITnHex-2-PyP^5+] | spectral change (Mn loss) ([3]; solid dissolved in 12 M HCl, 3 months): the spectra did not change within 3 months
5 | 13.2 | 0.80 | 0.86 | none | +367 mV vs NHE | 7.71 | CCCCCCCC[n+]1ccccc1-c1c2nc(c(-c3cccc[n+]3CCCCCCCC)c3ccc([nH]3)c(-c3cccc[n+]3CCCCCCCC)c3nc(c(-c4cccc[n+]4CCCCCCCC)c4ccc1[nH]4)C=C3)C=C2.[Mn+3] [Mn^IIITnOct-2-PyP^5+] | 
6 |  |  |  |  |  |  | CCCCCC[n+]1ccccc1-c1c2nc(c(-c3cccc[n+]3CCCCCC)c3ccc([nH]3)c(-c3cccc[n+]3CCCCCC)c3nc(c(-c4cccc[n+]4CCCCCC)c4ccc1[nH]4)C=C3)C=C2.[Zn+2] [ZnTnHex-2-PyP^4+] | zinc loss [10]: No indication of zinc loss was found within a week
7 |  |  |  |  |  |  | CuZn—SOD: CuZn superoxide dismutase enzyme | kcat [11]: 2e+09 M⁻¹ s⁻¹

Row | Molecule | pKa2 [2] | Rf (compound path/solvent path) [5] | Rf (compound path/solvent path), metal-free porphyrin (in parentheses) [5] | degradation of Mn(II) porphyrin [6] | E1/2 [8] | log kcat [9] | other results
8 | C[n+]1ccccc1-c1c2nc(c(-c3cccc[n+]3C)c3ccc([nH]3)c(-c3cccc[n+]3C)c3nc(c(-c4cccc[n+]4C)c4ccc1[nH]4)C=C3)C=C2.[Mn+3] [Mn^IIITM-2-PyP^5+, Mn(III) meso tetrakis(N-methylpyridinium-2-yl)porphyrin] | 10.9 | 0.09 | 0.13 | −40% | +220 mV vs NHE | 7.79 | Mn lost ([3]; 12 M HCl, within a month): over 50%; protection in rodent models of oxidative stress [4]: offer protection in rodent models of oxidative stress; growth of SOD-deficient E. coli [7]: allow SOD-deficient Escherchia coli to grow under aerobic conditions
9 | meso tetrakis(N-ethylpyridinium-2-yl)porphyrins [Mn^IIITE-2-PyP^5+] | 10.9 | 0.13 | 0.21 |  | +228 mV vs NHE | 7.76 | protection in rodent models of oxidative stress [4]: offer protection in rodent models of oxidative stress; growth of SOD-deficient E. coli [7]: allow SOD-deficient Escherchia coli to grow under aerobic conditions
